Laboratory results reported in ChEMBL document CHEMBL1154196, “Synthesis and evaluation of (S,S)-N,N'-bis-[3-(2,2',6,6'-tetramethylbenzhydryloxy)-2-hydroxy-propyl]-ethylenediamine (S2824) analogs with anti-tuberculosis activity” (2009).
Values after ≈ are worked out from the molar mass of the structure shown.

Key:
[1] = tested on: Mycobacterium tuberculosis; assay: Antitubercular activity against isoniazid, rifampin-resistant Mycobacterium tuberculosis by radiometric BACTEC460 method; assay type: functional
[2] = tested on: Mycobacterium tuberculosis; assay: Antitubercular activity against isoniazid, rifampin, ethambutol, streptomycin-resistant Mycobacterium tuberculosis by radiometric BACTEC460 method; assay type: functional

In the case of `Cc1ccc(C(OC[C@H](O)CN2CCN(C[C@@H](O)COC(c3ccc(C)cc3)c3ccc(C)cc3)CC2)c2ccc(C)cc2)cc1`, the MIC [1] is reported as 6.25 µg/mL (≈ 10 µM) and the MIC [2] is reported as 6.25 µg/mL (≈ 10 µM).
In the case of `Cc1ccc(C(OC[C@@H](O)CN2CCCN(C[C@H](O)COC(c3ccc(C)cc3)c3ccc(C)cc3)CC2)c2ccc(C)cc2)cc1`, the MIC [1] is reported as 1.56 µg/mL (≈ 2.45 µM) and the MIC [2] is reported as 0.78 µg/mL (≈ 1.22 µM).
`CC[C@@H](CO)NCCN[C@@H](CC)CO` [ETHAMBUTOL] was tested, and the MIC [1] was 3.13 µg/mL (≈ 15.3 µM) and the MIC [2] was > 12.5 µg/mL.
In the case of `Cc1ccc(C(OC[C@H](O)CN2CCCN(C[C@@H](O)COC(c3ccc(C)cc3)c3ccc(C)cc3)CC2)c2ccc(C)cc2)cc1`, the MIC [1] is reported as 1.56 µg/mL (≈ 2.45 µM) and the MIC [2] is reported as 1.56 µg/mL (≈ 2.45 µM).
